Two compounds from patent US12377069B2, “Compounds, compositions, methods of using, and methods for preparing compounds” (UNIVERSITY OF LOUISVILLE RESEARCH FOUNDATION, INC., priority 2018, dated 2025) can be followed below.

One assay has as its system HT29 or Caco2 cells. The experiment in a line: Tight junction protein expression (RT PCR, immunoblot, confocal). The assay is classed as cell-based, human. The conditions noted are these: 24 h; for tight junction protein levels (Western blots; Cldn4 confocal imaging): HT29 and Caco2, 50 μM. The protocol: Real time PCR: Total RNA was isolated from cells/tissue using Maxwell® 16 LEV simplyRNA tissue kit (Promega) and reverse transcribed with TaqManC Reverse transcription Kit (Applied Biosystems, CA, USA). The transcribed cDNA (after dilution) was mixed with 100 nM gene specific primers (Real time primers LLC) and 1×SYBR green reaction mix (Power SYBR® Green PCR Master Mix; Applied Biosystems, CA, USA). Changes in gene expression was analyzed using CFX96™ Real-Time System (Bio Rad) and fold change in expression was calculated using 2^ΔΔCT method using GAPDH/0-actin as house keeping gene and normalized with untreated control.
(§1) Immunoblots (Western blots): The total protein lysates were collected either from colon tissue/cells using radioimmunoprecipitation assay (RIPA) buffer (Sigma-Aldrich, USA) and quantified using BCA protein quantification kit (Thermo Scientific) as per instructional manual. Total protein (20-50 μg) of was resolved on NuPAGE™ 4-12% Bis-Tris gel (Novex Life technologies) and transferred to polyvinylidene difluoride membrane (0.22 μm pore; Millipore, USA). After blocking with 5% (w/v) skim milk powder (containing 1×TBS) for 1 h, the membrane was then incubated with respective antibodies at 4° C. overnight (dilutions of respective antibodies is given in Table A1). Next day, respective secondary antibody conjugated with Horseradish peroxidase were probed and the chemiluminescent substrate was used to detect the protein bands (ImageQuant LAS 4000). Densitometry analysis of bands were done using ImageJ software. Antibodies for Cldn4, Ocln, Cldn1, Cyp1A1, AhR, HO1, NQO1, Keap1, β-actin and Lamin B were purchased from Santa Cruz Biotechnologies (USA) and Nrf2 from Novus Biologicals (USA).
Confocal Imaging: HT29 or CaCo2 or BMDM cells (50,000 cells/well) were plated on to 8-well chambered slides (154534PK; ThermoFisher Scientific) allowed them to grow overnight. The cells were induced with vehicle (0.01% DMSO) or UroA (50 μM) or UAS03 (50 μM) for desired time points and fixed with cold methonol. […]
On the technique in general: A western blot detects proteins with antibodies after separation by electrophoresis.

Assay [1] concerns C57BL/6, Nrf2^−/− and AhR^−/− mice. The experiment in a line: Colon protein/mRNA expression after 7 days of oral treatment. It is filed as in vivo, mouse. The conditions noted are these: for AhR expression in colons of treated mice / Nrf2 and HO1 in the colons of wild type mice / expression of Cldn4 in the colons of mice: oral 20 mg/kg daily, 7 days; for Nrf2 and tight junction proteins (Cldn4, NQO1, Ocln, ZO1 and TJP3) in WT mice / Nrf2 and tight junction proteins in Nrf2^−/− and AhR^−/− mice: orally 20 mg/kg daily, seven days. The protocol:
as §1
Tissue processing for RNA and protein analysis: Mice were treated with as described in results section. Mice were euthanized with CO2 asphyxiation followed by cervical dislocation. Colon was dissected out and luminal contents were flushed out with cold PBS (containing PMSF and Sodium orthvandate). Small portion of colon was snap frozen in liquid nitrogen and stored at −80° C. for RNA analysis. For preparation of protein samples, colon was opened longitudinally and mucosa was scraped in ice-cold 1×PBS using pre-chilled glass slide and centrifuged at 300×g for 10 min at 4° C. Supernatant was discarded and pellet was suspended in RIPA buffer (containing 1× protease inhibitor) and vortexed at high speed. After 30 min incubation on ice, samples were centrifuged at 13,000×g for 20 min at 4° C. Supernatant was collected and protein was quantified using BCA protein quantification kit. The lysates were used appropriately for Western blots.

The subject of the next assay is NF-κB. Nature of the assay: NF-κB EMSA assay. Conditions: LPS 50 ng/mL, 6 hr. The assay is classed as cell-based, mouse. As for the experimental part:
NF-κB EMSA assay: RAW 264.7 cells or BMDM were plated in 100 mm dishes (1×10^6) in DMEM supplemented with 10% fetal bovine serum (FBS), 100 U/ml penicillin, and […]. Cells were allowed to grow for 24 hr and after incubation, cells were treated with LPS (50 ng/mL) with and without UroA (50 μM) and UAS03 (50 μM) for 6 hr. After treatments, culture medium was removed and washed with PBS. Cells were scraped and pelleted down in PBS. Supernatant was discarded and pellet was used for isolation of nuclear and cytosolic protein using NE-PER Nuclear and Cytoplasmic kit (Thermo Scientific; Cat #78833). Later nuclear protein (2 μg) was used for EMSA using Non-Radioactive EMSA Kits with IR Fluo-Probes for Nuclear factor kappa B p65 (Viagene Biotech Inc Cat #IRTF282 60).
(In general: Mobility shift assays separate free from complexed probe on a gel.)

The subject of a further assay is Caco-2 monolayer cells. The experiment in a line: Caco2 monolayer TEER and FITC-dextran permeability (EtOH, LPS, HMGB1). The assay is classed as cell-based, human. Conditions: for TEER / Ocln expression: EtOH 350 mM (2%); for TEER: 10, 25, 50 μM pre-treatment 24 h; for Ocln expression: 10, 25, 50 μM, 24 h. The protocol:
FIG. 13: Caco2 cells were grown as monolayer on transwell membrane filters. (A) Cells were treated with 40 mM EtOH and FITC-dextran permeability was performed in time dependent manner. (B-F) Cells were treated with respective Urolithins (50 μM) and Ellagic acid (50 μM) or different doses of UroA (B) for 24 hrs. After treatments, cells were treated with ethanol (40 mM) (B, D) or 400 mM (E, F), LPS (100 ng/mL), HMGB1 (500 ng/mL) for 2 hrs and washed with PBS. FITC-Dex (1 mg/mL) solution was added (100 μl) on apical side. Permeability of FITC-Dex across the monolayer as well as TEER values were measured after 2 hr. […] Confocal images of TJ proteins staining. Statistics performed using unpaired t-test. *p<0.05, **p<0.01, *** p<0.001, Error bars, ±SEM.
Caco2 cells on transwell membrane were pre-treated with vehicle or UroA or UAS03 (10, 25, 50 μM) for 24 h followed by addition of alcohol (2%) for 24 h. TEER values (A) and the FITC-dextran permeability assay (B) was performed as described in FIG. 2. Statistics performed using unpaired t-test using Graphpad Prism software. Error bars, ±SEM; ***p<0.001; **p<0.01. (C) Caco2 cells were treated with alcohol (EtOH) (350 mM or 2%) in the presence or with UroA or UAS03 (10, 25, 50 μM) for 24 h and determined expression of Ocln by Western blots. Representative of 3 independent blots was shown.
UroA upregulate TJ proteins and protect against EtOH induced damage. […] For this purpose, we utilized Caco-2 monolayer cells on transwell membranes and performed transepithelial electrical resistance (TEER) and FITC-dextran permeability assays. […] Gut barrier dysfunction leads to elevated intestinal permeability thus increasing circulating levels of endotoxins. Endotoxins such as LPS (representative for PAMP) and HMGB1 (representative for DAMP) induce several inflammatory cytokines, chemokines and ROS leading to further enhancement of systemic inflammation to promote pathogenesis of ALD.
We tested whether UAS03 could protect against higher dose of EtOH (350 mM) induced barrier dysfunction in Caco2 monolayer cells.
A general note: Passage across Caco-2 layers is used to estimate intestinal permeability.

With `Oc1ccc2c(c1)COc1cc(O)ccc1-2` [UAS03, 6H-benzo[c]chromene-3,8-diol], in the assay with HT29 or Caco2 cells, the “tight junction protein levels (Western blots; Cldn4 confocal imaging)” value was “increased levels”. In addition, in assay [1], the “AhR expression in colons of treated mice” value was “upregulated”; the “Nrf2 and HO1 in the colons of wild type mice” value was “upregulated”; the “expression of Cldn4 in the colons of mice” value was “elevated expression”; the “Nrf2 and tight junction proteins (Cldn4, NQO1, Ocln, ZO1 and TJP3) in WT mice” value is “upregulated”. For the same compound, the “Nrf2 and tight junction proteins in Nrf2^−/− and AhR^−/− mice” value in assay [1] is reported as “did not appear to induce”. Besides, in the assay on NF-κB, the “LPS-induced NF-κB activation in macrophages” value was “reduced the NF-κB activation”. Besides, in the assay on Caco-2 monolayer cells, the TEER entry is recorded as “increased TEER” and the Ocln expression result was “increased TJ protein”.

Turning to `O=c1oc2cc(O)ccc2c2ccc(O)cc12` [UroA, 3,8-dihydroxy-6H-dibenzo[b,d]pyran-6-one], the “expression of ZO-1 and Ocln1 (real time PCR)” value in the assay with HT29 or Caco2 cells (HT29, 50 μM) is given as “increase in expression”. For the same compound, in the assay with HT29 or Caco2 cells, the “tight junction protein levels (Western blots; Cldn4 confocal imaging)” value is on record as “increased levels”. In addition, in assay [1], the “AhR expression in colons of treated mice” value is reported as “upregulated”; the “Nrf2 and HO1 in the colons of wild type mice” value is “upregulated”; the “expression of Cldn4 in the colons of mice” value is “elevated expression”; the “Nrf2 and tight junction proteins (Cldn4, NQO1, Ocln, ZO1 and TJP3) in WT mice” value is “upregulated”. The “Nrf2 and tight junction proteins in Nrf2^−/− and AhR^−/− mice” value in assay [1] was “did not appear to induce”. Also, the “LPS-induced NF-κB activation in macrophages” value in the assay with NF-κB is “reduced the NF-κB activation”. Further, in the assay with Caco-2 monolayer cells, the TEER entry was “increased TEER” and the Ocln expression entry is “increased TJ protein”. In addition, in the assay with Caco-2 monolayer cells (EtOH 400 mM), the TEER values entry is listed as “enhanced TEER values”. The “EtOH induced damage of tight junction proteins (ZO-1, Ocln)” value with Caco-2 monolayer cells (Western blots, confocal images) is “protects against EtOH induced damage of tight junction proteins”.
